Experiment [1] has as its target Myosin light chain kinase, smooth muscle (Homo sapiens, UniProt Q15746).
Experiment [2] deals with Cyclin-dependent kinase 5 (Homo sapiens, UniProt Q00535).
The target of experiment [3] is T1, Exosome RNA helicase MTR4 (Homo sapiens, UniProt P42285).
T1 sequence (P42285 whole entry): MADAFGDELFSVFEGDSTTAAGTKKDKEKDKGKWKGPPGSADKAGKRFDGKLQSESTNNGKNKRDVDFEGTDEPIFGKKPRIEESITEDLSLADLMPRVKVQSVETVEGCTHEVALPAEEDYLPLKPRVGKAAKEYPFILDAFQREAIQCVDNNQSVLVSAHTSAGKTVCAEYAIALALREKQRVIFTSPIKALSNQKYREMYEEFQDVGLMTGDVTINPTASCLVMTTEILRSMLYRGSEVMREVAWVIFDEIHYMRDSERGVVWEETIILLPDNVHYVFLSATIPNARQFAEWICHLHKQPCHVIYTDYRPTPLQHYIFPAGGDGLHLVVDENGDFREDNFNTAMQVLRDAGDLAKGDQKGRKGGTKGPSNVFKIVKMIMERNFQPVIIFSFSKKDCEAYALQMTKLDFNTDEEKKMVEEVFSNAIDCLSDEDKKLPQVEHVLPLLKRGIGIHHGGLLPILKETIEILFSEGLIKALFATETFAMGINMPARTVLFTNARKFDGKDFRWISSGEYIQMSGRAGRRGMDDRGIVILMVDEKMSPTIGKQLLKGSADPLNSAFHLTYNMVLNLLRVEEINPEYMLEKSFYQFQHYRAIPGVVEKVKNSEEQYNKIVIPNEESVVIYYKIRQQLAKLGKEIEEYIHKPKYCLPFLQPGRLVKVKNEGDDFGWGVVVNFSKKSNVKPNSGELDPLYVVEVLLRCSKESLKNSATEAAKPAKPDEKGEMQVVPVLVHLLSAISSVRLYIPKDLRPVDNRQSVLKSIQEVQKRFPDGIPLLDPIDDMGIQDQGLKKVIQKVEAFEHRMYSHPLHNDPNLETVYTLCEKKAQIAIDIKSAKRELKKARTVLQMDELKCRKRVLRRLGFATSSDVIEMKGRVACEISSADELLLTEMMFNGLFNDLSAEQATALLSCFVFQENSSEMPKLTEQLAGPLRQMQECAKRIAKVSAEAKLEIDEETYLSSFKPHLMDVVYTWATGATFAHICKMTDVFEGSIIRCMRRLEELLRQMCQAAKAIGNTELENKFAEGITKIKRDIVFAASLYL

Experiment [4] addresses RAC-gamma serine/threonine-protein kinase (Homo sapiens, UniProt Q9Y243).
The target of experiment [5] is BMP-2-inducible protein kinase (Homo sapiens, UniProt Q9NSY1).
The next experiment addresses Insulin receptor (Homo sapiens, UniProt P06213).
Experiment [6] concerns the target STE20-like serine/threonine-protein kinase (Homo sapiens, UniProt Q9H2G2).
Experiment [7] deals with Dual specificity mitogen-activated protein kinase kinase 2 (Homo sapiens, UniProt P36507).
Experiment [8] deals with Calcium/calmodulin-dependent protein kinase type II subunit delta (Homo sapiens, UniProt Q13557).
In another experiment the target is Ephrin type-A receptor 5 (Homo sapiens, UniProt P54756).
Experiment [9] deals with Mitogen-activated protein kinase kinase kinase 1 (Homo sapiens, UniProt Q13233).
The target in experiment [10] is Tyrosine-protein kinase ABL1 (Homo sapiens, UniProt P00519).
In experiment [11] the target is NADH dehydrogenase [ubiquinone] 1 alpha subcomplex subunit 13 (Homo sapiens, UniProt Q9P0J0).
Experiment [12] deals with RAC-alpha serine/threonine-protein kinase (Homo sapiens, UniProt P31749).

In ChEMBL document CHEMBL3991601, “The target landscape of clinical kinase drugs” (Science, 2017) one finds Kd data, which are given here for ten molecules.

Activity calls are given as the source filed them. Cut-off read from the data, not from the text of the source, for most assays here: actives have a measured Kd and inactives only a lower limit. Some results are limits rather than exact numbers.
Note: in the data inactive means no Kd found up to 30 µM.

Chain of RAC-alpha serine/threonine-protein kinase (P31749 whole entry): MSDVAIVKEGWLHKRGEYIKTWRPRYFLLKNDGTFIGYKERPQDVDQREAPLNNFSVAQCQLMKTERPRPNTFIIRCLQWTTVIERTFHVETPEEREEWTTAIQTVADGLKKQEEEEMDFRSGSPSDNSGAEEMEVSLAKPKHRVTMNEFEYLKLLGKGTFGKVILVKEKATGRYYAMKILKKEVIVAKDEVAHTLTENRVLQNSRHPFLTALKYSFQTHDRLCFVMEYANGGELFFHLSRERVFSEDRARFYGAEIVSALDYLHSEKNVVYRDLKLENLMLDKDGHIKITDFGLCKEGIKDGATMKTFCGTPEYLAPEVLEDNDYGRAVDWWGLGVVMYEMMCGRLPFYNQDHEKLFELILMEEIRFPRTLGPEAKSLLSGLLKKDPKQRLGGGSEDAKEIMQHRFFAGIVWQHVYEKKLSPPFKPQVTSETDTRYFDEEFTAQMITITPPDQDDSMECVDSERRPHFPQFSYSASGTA
Chain of BMP-2-inducible protein kinase (Q9NSY1 whole entry): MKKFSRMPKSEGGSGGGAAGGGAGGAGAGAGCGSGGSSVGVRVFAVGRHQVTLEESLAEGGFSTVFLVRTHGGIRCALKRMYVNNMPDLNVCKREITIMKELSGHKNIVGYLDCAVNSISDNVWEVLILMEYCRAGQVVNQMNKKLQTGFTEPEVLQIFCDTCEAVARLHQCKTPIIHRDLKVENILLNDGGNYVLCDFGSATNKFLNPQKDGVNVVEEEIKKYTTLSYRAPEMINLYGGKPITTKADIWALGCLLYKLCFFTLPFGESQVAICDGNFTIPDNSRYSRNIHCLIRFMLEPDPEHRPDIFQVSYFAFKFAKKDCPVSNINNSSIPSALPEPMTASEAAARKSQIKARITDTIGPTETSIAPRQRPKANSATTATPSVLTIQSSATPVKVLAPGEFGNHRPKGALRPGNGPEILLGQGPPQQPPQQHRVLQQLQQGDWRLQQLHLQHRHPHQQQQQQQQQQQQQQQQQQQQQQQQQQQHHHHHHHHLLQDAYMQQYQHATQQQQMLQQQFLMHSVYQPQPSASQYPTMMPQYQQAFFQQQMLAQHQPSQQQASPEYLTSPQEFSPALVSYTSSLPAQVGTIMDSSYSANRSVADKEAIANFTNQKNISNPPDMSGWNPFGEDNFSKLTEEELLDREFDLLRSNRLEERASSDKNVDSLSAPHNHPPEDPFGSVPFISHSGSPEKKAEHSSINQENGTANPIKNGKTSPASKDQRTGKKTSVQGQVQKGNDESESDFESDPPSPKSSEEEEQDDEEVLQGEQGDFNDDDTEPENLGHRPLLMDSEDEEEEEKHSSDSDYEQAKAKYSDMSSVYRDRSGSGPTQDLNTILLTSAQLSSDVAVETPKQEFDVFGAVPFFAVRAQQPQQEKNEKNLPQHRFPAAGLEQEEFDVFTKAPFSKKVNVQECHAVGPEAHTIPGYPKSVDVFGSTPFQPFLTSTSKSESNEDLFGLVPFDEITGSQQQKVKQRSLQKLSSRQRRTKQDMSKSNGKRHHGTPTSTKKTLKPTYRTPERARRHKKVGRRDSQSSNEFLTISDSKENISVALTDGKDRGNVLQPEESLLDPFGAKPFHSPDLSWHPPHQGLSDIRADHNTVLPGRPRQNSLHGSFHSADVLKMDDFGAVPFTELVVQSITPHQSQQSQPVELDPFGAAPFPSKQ
Chain of Dual specificity mitogen-activated protein kinase kinase 2 (P36507 whole entry): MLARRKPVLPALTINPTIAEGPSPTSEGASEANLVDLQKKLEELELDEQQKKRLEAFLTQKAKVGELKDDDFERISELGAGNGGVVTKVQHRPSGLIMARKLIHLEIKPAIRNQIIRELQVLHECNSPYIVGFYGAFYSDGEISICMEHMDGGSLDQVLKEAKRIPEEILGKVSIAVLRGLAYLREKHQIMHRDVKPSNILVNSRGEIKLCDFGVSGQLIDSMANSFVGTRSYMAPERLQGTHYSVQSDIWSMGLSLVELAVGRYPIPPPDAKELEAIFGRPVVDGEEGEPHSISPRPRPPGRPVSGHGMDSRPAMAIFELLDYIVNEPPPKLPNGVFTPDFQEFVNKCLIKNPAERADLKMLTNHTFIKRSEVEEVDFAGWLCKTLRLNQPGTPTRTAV
Chain of Myosin light chain kinase, smooth muscle (Q15746 whole entry): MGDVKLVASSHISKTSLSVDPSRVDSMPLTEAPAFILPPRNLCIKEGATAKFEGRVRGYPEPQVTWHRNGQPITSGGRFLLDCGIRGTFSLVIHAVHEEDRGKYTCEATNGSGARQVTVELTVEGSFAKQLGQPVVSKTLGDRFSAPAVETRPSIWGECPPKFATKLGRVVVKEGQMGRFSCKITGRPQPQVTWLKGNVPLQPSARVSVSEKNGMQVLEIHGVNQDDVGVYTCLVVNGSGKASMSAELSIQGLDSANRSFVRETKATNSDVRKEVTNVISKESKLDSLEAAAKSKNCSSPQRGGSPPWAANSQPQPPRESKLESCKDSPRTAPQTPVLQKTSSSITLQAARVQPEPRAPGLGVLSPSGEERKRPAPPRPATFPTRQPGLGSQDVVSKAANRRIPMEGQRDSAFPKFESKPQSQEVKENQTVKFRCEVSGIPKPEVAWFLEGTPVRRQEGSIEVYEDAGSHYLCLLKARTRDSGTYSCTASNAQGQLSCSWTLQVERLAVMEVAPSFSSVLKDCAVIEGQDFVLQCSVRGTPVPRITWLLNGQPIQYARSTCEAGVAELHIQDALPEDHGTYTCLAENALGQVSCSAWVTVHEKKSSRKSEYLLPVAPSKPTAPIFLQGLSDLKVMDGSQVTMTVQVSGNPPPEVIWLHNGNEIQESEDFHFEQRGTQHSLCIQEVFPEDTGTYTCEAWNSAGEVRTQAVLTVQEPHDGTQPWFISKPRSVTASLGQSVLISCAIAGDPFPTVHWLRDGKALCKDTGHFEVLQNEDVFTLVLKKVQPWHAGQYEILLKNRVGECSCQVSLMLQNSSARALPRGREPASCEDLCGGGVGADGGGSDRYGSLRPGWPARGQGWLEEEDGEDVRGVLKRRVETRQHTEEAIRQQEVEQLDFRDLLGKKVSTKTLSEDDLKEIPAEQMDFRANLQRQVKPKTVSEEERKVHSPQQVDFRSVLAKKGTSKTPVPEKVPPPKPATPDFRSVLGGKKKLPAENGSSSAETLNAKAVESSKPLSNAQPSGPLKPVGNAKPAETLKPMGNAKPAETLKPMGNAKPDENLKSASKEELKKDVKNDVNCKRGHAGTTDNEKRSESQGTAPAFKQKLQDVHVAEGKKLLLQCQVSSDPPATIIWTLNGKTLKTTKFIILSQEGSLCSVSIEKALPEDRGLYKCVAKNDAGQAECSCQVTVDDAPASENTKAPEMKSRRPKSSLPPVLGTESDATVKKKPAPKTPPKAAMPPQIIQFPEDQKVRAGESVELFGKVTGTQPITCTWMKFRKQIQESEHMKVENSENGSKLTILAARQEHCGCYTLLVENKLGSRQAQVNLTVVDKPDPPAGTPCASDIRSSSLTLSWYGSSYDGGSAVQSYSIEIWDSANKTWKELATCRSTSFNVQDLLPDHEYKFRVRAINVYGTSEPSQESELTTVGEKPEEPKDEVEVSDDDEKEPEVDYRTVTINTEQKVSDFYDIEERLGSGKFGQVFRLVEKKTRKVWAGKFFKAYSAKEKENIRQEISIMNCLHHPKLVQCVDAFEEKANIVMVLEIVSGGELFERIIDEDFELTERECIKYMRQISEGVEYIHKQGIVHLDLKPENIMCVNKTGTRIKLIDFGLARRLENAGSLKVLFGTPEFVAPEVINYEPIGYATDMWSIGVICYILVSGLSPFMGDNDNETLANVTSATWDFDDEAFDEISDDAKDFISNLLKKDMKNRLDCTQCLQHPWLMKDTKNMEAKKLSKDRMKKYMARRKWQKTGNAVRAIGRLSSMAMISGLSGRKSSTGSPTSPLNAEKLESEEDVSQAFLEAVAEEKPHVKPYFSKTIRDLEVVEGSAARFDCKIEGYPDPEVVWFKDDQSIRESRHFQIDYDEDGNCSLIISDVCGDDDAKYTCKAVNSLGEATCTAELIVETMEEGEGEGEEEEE
Chain of Cyclin-dependent kinase 5 (Q00535 whole entry): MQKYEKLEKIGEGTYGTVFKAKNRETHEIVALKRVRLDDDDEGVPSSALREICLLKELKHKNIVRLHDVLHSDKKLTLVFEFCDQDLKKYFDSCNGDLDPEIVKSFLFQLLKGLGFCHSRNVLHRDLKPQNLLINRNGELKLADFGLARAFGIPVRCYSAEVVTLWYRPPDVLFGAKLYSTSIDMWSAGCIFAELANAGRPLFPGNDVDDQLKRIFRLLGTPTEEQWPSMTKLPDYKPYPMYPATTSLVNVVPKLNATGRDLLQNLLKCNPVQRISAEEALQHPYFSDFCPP
Chain of RAC-gamma serine/threonine-protein kinase (Q9Y243 whole entry): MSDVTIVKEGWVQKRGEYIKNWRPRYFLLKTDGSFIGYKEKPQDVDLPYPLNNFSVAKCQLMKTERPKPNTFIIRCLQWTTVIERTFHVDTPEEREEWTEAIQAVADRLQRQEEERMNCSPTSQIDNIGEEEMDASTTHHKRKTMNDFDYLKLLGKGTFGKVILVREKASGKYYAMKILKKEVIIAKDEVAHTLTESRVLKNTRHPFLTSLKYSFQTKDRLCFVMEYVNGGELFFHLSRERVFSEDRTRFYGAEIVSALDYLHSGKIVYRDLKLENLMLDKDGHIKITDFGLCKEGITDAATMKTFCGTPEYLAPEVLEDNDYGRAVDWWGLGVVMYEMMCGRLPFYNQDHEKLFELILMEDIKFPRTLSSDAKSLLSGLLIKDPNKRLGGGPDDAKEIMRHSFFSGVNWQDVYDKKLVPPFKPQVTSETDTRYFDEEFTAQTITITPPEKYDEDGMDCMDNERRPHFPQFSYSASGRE
Chain of NADH dehydrogenase [ubiquinone] 1 alpha subcomplex subunit 13 (Q9P0J0 whole entry, one chain of several): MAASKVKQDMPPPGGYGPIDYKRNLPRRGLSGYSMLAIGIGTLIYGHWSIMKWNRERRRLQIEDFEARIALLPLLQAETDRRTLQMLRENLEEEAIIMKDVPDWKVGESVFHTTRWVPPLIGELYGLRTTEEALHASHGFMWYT

By Kd is commonly meant the free concentration of one partner at which half of the binding sites on the other are occupied at equilibrium, for simple one-to-one binding. Take `Cc1cc2c(F)c(Oc3ncnn4cc(OC[C@@H](C)OC(=O)[C@H](C)N)c(C)c34)ccc2[nH]1` [BRIVANIB ALANINATE]: the Kd (in [1]; in experiment [2]; in experiment [3]; in [4]; in experiment [5]; at Insulin receptor) was > 30 µM (inactive) each time. For the same molecule, the Kd in [6] is 9.49 µM (active); in experiment [7] it was > 30 µM (inactive); in [8], > 30 µM (inactive); on Ephrin type-A receptor 5 it was > 30 µM (inactive); in [9] it was > 30 µM (inactive); in experiment [10] it was > 30 µM (inactive). Further, the Kd in experiment [11] and in experiment [12] was > 30 µM (inactive) in each case.
Regarding `C1=C/COCc2cc(ccc2OCCN2CCCC2)Nc2nccc(n2)-c2cccc(c2)COC/1` [PACRITINIB], the Kd in [1] is > 30 µM (inactive); in experiment [2], > 30 µM (inactive); in [3], > 30 µM (inactive); in experiment [4] it was > 30 µM (inactive); in experiment [5], 0.039 µM (active); at Insulin receptor, > 30 µM (inactive). Besides, the Kd (in experiment [6]; in [7]; in experiment [8]; at Ephrin type-A receptor 5; in experiment [9]; in [10]) was > 30 µM (inactive) throughout. The Kd in experiment [11] and in [12] was > 30 µM (inactive) in each case.
As for `C[C@@H]1CN(Cc2ccc(F)cc2)[C@@H](C)CN1C(=O)c1cc2c(C(=O)C(=O)N(C)C)cn(C)c2cc1Cl` [TALMAPIMOD], the Kd (in [1]; in [2]; in experiment [3]; in experiment [4]; in [5]; on Insulin receptor) was > 30 µM (inactive) throughout. The Kd (in [6]; in [7]; in experiment [8]; at Ephrin type-A receptor 5; in experiment [9]; in [10]) was > 30 µM (inactive) each time. The Kd in [11] and in [12] was > 30 µM (inactive) in each case.
On to `CN1CCC(COc2cnc(-c3cccc(Cn4nc(-c5cccc(C#N)c5)ccc4=O)c3)nc2)CC1` [TEPOTINIB], for which the Kd (in [1]; in [2]; in experiment [3]; in [4]; in experiment [5]; on Insulin receptor) was > 30 µM (inactive) throughout. Also, the Kd (in [6]; in [7]; in experiment [8]; at Ephrin type-A receptor 5; in experiment [9]; in [10]) was > 30 µM (inactive) in each case. For the same molecule, the Kd in [11] and in experiment [12] was > 30 µM (inactive) each time.
As for `CNC(=O)c1ccc(C)c(-n2c(C)cc(OCc3ccc(F)cc3F)c(Br)c2=O)c1` [PH-797804], the Kd (in experiment [1]; in experiment [2]; in [3]; in experiment [4]; in experiment [5]; at Insulin receptor) was > 30 µM (inactive) each time. Moreover, the Kd (in experiment [6]; in experiment [7]; in experiment [8]; at Ephrin type-A receptor 5; in [9]; in experiment [10]) was > 30 µM (inactive) throughout. Further, the Kd in experiment [11] and in experiment [12] was > 30 µM (inactive) each time.
Take `COc1cc(N2CCC(N3CCN(C)CC3)CC2)ccc1Nc1ncnc(Nc2ccccc2S(=O)(=O)C(C)C)n1` [ASP-3026]: the Kd was > 30 µM (inactive) in [1]; > 30 µM (inactive) in experiment [2]; > 30 µM (inactive) in experiment [3]; > 30 µM (inactive) in [4]; > 30 µM (inactive) in experiment [5]; 7.91 µM (active) at Insulin receptor. Moreover, the Kd is 36.3 µM (active) in experiment [6]; > 30 µM (inactive) in experiment [7]; 0.704 µM (active) in [8]; > 30 µM (inactive) at Ephrin type-A receptor 5; > 30 µM (inactive) in experiment [9]; 5.26 µM (active) in experiment [10]. The Kd in [11] and in experiment [12] was > 30 µM (inactive) in each case.
For `Cc1cc([C@@H](C)Nc2ccccc2C(=O)O)c2nc(N3CCOCC3)cc(=O)n2c1` [AZD-6482], the Kd (in experiment [1]; in [2]; in experiment [3]; in [4]; in experiment [5]; on Insulin receptor) was > 30 µM (inactive) each time. Besides, the Kd (in experiment [6]; in experiment [7]; in experiment [8]; on Ephrin type-A receptor 5; in experiment [9]; in experiment [10]) was > 30 µM (inactive) in each case. The Kd in experiment [11] and in [12] was > 30 µM (inactive) throughout.
For the molecule `CN1CCC(CNc2ccc3ncc(-c4cccc(OC(F)(F)F)c4)n3n2)CC1` [SGI-1776], the Kd in [1] was > 30 µM (inactive); in experiment [2], > 30 µM (inactive); in experiment [3], > 30 µM (inactive); in experiment [4] it was > 30 µM (inactive); in [5] it was 8.53 µM (active); on Insulin receptor it was > 30 µM (inactive). In addition, the dissociation constant (Kd) in experiment [6] is 3.59 µM (active); in [7], > 30 µM (inactive); in experiment [8], > 30 µM (inactive); at Ephrin type-A receptor 5, > 30 µM (inactive); in experiment [9], > 30 µM (inactive); in experiment [10], > 30 µM (inactive). Besides, the Kd in [11] and in experiment [12] was > 30 µM (inactive) throughout.
Consider `CC(C)Nc1cc(-c2c[nH]c(C(=O)N[C@H](CO)c3cccc(Cl)c3)c2)c(Cl)cn1` [ULIXERTINIB], for which the Kd (in [1]; in [2]; in [3]; in experiment [4]; in experiment [5]; on Insulin receptor) was > 30 µM (inactive) each time. In addition, the Kd (in experiment [6]; in experiment [7]; in [8]; on Ephrin type-A receptor 5; in experiment [9]; in experiment [10]) was > 30 µM (inactive) in each case. Further, the Kd in [11] and in experiment [12] was > 30 µM (inactive) each time.
As for `O=c1sn(-c2cccc3ccccc23)c(=O)n1Cc1ccccc1` [TIDEGLUSIB], the Kd (in experiment [1]; in experiment [2]; in experiment [3]; in experiment [4]; in [5]; at Insulin receptor) was > 30 µM (inactive) each time. Moreover, the Kd (in [6]; in [7]; in [8]; at Ephrin type-A receptor 5; in experiment [9]; in [10]) was > 30 µM (inactive) each time. For the same molecule, the Kd in experiment [11] and in [12] was > 30 µM (inactive) throughout.
